# Measured values: paper PMC9150124, “Design of a Potent, Selective, and Brain-Penetrant Inhibitor of Wnt-Deactivating Enzyme Notum by Optimization of a Crystallographic Fragment Hit” (Journal of Medicinal Chemistry, 2022)
# Values joined by “and” are separate entries in the source; they are usually repeats but may differ in a detail not shown here. Equal values may be shown once. Read-outs that look alike come from different tables or passages of the source.
# Tests used:
# [1] = biological target: kinase named in conditions (Homo sapiens, UniProt O75385); experiment: SelectScreen kinase profiling, SSBK LanthaScreen Binding SP Technology; settings: ULK1, 10 μM
# [2] = biological target: kinase named in conditions (Homo sapiens, UniProt P00519, M351T); experiment: as above; settings: ABL1 M351T, 10 μM
# [3] = biological target: kinase named in conditions (Homo sapiens, UniProt P04049, Y340D/Y341D); experiment: as above; settings: RAF1 (cRAF) Y340D Y341D, 10 μM
# [4] = biological target: kinase named in conditions (Homo sapiens, UniProt P10721, N822K); experiment: as above; settings: KIT N822K, 10 μM
# Chain of kinase named in conditions (Homo sapiens, UniProt P10721, N822K) (P10721 26-976 N822K): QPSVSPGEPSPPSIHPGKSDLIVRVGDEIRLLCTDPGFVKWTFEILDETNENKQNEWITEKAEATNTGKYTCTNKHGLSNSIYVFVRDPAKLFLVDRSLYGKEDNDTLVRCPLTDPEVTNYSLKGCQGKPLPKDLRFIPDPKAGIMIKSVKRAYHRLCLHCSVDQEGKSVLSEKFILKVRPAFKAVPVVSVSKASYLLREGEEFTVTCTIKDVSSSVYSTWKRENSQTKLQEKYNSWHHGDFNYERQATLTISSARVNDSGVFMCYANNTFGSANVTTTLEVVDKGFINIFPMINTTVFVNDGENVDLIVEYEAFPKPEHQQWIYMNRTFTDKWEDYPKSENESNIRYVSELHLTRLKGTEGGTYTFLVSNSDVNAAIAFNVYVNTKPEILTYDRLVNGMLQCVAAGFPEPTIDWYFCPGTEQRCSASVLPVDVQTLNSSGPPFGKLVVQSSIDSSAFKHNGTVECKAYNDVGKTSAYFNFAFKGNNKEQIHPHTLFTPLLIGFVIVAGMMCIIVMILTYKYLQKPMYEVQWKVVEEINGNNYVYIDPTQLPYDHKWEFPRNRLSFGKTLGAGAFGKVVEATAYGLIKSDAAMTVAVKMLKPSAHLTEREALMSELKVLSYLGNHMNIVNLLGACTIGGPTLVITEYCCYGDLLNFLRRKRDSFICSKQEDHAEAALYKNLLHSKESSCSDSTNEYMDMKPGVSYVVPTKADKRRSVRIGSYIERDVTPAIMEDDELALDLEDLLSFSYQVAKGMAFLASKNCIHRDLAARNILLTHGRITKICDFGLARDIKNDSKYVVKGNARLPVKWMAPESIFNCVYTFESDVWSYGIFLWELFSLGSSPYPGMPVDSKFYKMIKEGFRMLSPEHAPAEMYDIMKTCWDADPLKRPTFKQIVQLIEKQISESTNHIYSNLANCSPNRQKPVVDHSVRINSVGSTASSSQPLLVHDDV
# [5] = biological target: kinase named in conditions (Homo sapiens, UniProt P57058); experiment: as above; settings: HUNK, 10 μM
# [6] = biological target: kinase named in conditions (Homo sapiens, UniProt Q02763, R849W); experiment: as above; settings: TEK (TIE2) R849W, 10 μM
# [7] = biological target: kinase named in conditions (Homo sapiens, UniProt Q08345); experiment: as above; settings: DDR1, 10 μM
# Chain of kinase named in conditions (Homo sapiens, UniProt Q08345) (Q08345 19-913): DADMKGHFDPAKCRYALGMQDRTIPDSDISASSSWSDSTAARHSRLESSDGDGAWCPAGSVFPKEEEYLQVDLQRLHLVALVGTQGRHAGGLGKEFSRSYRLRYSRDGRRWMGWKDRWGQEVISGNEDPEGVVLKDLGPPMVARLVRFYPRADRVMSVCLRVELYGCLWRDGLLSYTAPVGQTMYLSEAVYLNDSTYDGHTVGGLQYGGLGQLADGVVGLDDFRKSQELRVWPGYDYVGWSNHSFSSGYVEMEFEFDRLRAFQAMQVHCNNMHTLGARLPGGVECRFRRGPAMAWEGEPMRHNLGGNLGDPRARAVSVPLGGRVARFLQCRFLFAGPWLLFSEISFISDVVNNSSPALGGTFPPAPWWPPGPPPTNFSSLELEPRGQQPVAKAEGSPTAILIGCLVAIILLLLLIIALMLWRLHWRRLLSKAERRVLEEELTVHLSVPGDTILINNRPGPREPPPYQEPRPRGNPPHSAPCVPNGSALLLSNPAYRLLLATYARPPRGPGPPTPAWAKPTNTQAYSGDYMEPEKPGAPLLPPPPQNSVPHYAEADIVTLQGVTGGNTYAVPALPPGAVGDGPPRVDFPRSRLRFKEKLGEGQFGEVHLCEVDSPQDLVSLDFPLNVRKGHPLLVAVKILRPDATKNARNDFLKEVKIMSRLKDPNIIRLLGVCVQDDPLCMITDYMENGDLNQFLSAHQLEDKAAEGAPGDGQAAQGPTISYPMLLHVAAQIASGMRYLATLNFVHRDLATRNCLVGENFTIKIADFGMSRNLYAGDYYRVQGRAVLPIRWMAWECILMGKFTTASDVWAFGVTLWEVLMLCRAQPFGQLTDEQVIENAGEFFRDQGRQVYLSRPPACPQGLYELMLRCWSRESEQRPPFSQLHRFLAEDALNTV
# [8] = biological target: kinase named in conditions (Homo sapiens, UniProt Q13555); experiment: as above; settings: CAMK2G (CaMKII gamma), 10 μM
# [9] = biological target: kinase named in conditions (Homo sapiens, UniProt Q32MK0); experiment: as above; settings: MLCK (MLCK2), 10 μM
# [10] = biological target: kinase named in conditions (Homo sapiens, UniProt Q5TCX8); experiment: as above; settings: MLK4, 10 μM
# [11] = biological target: kinase named in conditions (Homo sapiens, UniProt Q86YV6); experiment: as above; settings: MYLK4, 10 μM
# [12] = biological target: kinase named in conditions (Homo sapiens, UniProt Q8IWQ3); experiment: as above; settings: BRSK2, 10 μM
# [13] = biological target: kinase named in conditions (Homo sapiens, UniProt Q9UBE8); experiment: as above; settings: NLK, 10 μM
# [14] = biological target: kinase named in conditions (Homo sapiens, UniProt Q9UF33); experiment: as above; settings: EPHA6, 10 μM
# [15] = biological target: kinase named in conditions (Homo sapiens, UniProt Q9UKI8); experiment: as above; settings: TLK1, 10 μM
# [16] = biological target: kinase named in conditions (Homo sapiens, UniProt Q9Y2H1); experiment: as above; settings: STK38L (NDR2), 10 μM
# Chain of kinase named in conditions (Homo sapiens, UniProt Q9Y2H1) (Q9Y2H1 whole entry): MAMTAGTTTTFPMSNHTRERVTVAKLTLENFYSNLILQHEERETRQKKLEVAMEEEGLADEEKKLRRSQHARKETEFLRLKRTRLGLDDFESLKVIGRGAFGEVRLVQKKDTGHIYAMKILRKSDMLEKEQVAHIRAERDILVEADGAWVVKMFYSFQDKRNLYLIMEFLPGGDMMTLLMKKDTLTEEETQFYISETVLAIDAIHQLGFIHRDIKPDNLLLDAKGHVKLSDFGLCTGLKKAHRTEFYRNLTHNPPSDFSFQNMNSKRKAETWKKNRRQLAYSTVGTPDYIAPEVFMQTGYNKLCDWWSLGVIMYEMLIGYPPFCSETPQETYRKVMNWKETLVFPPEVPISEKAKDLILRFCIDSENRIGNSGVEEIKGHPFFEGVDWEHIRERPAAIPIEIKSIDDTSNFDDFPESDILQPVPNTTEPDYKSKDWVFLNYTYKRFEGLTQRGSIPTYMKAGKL
# [17] = biological target: kinase named in conditions (Homo sapiens, UniProt Q9Y2U5); experiment: as above; settings: MAP3K2 (MEKK2), 10 μM
# [18] = biological target: kinase named in conditions (Homo sapiens, UniProt Q9Y3S1); experiment: as above; settings: WNK2, 10 μM
# Chain of kinase named in conditions (Homo sapiens, UniProt Q9Y3S1) (Q9Y3S1 whole entry): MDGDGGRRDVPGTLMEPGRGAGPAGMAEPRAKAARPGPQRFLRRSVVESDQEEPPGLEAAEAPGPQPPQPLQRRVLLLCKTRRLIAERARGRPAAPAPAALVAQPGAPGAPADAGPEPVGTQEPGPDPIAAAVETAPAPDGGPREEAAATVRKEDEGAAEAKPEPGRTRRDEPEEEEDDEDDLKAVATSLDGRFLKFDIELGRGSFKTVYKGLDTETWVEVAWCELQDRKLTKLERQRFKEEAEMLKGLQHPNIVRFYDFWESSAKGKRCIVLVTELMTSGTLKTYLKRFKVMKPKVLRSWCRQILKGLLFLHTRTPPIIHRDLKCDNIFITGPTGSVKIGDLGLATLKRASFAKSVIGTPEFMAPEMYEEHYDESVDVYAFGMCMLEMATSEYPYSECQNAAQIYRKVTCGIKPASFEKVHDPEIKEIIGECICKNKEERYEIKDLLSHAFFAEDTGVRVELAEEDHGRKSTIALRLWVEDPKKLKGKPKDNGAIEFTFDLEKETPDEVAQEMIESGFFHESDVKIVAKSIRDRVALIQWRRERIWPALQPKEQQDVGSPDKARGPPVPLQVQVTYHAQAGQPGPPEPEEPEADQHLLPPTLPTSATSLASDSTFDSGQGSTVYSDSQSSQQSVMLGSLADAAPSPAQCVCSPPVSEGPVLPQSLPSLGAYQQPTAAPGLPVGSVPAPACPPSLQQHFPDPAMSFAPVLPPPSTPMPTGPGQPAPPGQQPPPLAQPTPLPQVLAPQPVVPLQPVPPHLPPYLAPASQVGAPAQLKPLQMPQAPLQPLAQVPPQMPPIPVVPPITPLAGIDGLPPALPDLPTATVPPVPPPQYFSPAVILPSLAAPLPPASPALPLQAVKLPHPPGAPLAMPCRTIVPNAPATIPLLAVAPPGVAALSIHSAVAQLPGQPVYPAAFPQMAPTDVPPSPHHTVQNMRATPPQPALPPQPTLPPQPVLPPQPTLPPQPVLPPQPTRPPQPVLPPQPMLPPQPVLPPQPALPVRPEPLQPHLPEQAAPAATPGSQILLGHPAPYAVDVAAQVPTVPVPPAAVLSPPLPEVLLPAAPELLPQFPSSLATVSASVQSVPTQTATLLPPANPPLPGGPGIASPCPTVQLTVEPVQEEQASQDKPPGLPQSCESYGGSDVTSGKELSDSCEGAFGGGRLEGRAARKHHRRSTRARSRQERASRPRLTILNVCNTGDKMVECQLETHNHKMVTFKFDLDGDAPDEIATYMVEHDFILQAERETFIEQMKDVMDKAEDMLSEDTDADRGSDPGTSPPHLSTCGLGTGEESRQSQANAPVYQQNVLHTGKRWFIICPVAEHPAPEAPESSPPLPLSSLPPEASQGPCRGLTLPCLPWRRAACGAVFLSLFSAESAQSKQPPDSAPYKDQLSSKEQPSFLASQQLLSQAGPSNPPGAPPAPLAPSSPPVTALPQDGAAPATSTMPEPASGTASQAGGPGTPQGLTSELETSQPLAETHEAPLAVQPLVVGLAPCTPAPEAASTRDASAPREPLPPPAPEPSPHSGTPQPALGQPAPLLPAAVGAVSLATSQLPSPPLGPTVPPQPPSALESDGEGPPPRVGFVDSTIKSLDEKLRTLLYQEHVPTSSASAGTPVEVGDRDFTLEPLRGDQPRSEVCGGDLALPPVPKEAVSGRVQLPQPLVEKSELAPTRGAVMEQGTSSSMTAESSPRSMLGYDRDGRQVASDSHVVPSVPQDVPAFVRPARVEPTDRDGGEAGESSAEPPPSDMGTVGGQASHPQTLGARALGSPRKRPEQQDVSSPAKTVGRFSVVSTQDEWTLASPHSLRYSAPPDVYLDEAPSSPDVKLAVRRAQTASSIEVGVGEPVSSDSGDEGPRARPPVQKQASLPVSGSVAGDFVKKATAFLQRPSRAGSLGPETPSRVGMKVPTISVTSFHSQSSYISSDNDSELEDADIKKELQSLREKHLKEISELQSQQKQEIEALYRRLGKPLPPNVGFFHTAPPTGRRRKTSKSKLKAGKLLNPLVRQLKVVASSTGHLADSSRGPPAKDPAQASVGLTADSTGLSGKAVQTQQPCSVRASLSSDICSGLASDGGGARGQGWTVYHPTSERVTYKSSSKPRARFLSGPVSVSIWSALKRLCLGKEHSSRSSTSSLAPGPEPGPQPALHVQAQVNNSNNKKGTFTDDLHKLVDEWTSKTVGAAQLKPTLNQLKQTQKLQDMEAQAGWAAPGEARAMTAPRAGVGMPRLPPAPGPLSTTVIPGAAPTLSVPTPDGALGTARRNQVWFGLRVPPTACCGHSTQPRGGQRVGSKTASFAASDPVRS
# [19] = biological target: kinase named in conditions (Homo sapiens, UniProt Q9Y616); experiment: as above; settings: IRAK3, 10 μM
# [20] = Aqueous solubility in PBS (pH 7.4); assay type: physicochemical
# Description: Biosciences (Hyderabad, India) or WuXi AppTec (Shanghai, China).
# Table S1: Representative assay protocol
# [21] = Brain tissue binding, rapid equilibrium dialysis; assay type: in vitro ADME, mouse; settings: for fraction unbound at 5 h, 10 µM: brain homogenate
# Description: Method: rapid equilibrium dialysis.
# Test System Mouse Brain Homogenate 10% w/v in PBS
# No. of Replicates Two (mouse) or three (rat)
# Buffer Phosphate buffer saline, pH 7.4
# [22] = biological target: T1, CYP1A2 (Homo sapiens, UniProt P05177); experiment: CYP450 inhibition in HLM
# T1 sequence (P05177 1-516): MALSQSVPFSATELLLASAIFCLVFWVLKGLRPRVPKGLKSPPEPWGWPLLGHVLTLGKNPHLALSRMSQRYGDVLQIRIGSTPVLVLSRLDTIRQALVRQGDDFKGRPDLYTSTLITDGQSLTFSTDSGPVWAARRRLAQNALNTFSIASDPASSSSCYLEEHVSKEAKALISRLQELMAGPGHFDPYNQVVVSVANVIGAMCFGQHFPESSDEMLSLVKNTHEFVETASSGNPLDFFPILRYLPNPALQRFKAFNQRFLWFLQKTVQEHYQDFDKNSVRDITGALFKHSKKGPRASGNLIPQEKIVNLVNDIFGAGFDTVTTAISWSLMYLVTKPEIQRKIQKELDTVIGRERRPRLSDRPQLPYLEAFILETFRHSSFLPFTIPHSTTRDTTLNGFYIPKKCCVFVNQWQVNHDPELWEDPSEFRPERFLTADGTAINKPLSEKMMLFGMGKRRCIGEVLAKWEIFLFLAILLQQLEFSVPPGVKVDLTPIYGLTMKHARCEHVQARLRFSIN
# [23] = biological target: CYP3A4 (Homo sapiens, UniProt P08684); experiment: CYP450 inhibition in HLM
# Chain of CYP3A4 (P08684 whole entry): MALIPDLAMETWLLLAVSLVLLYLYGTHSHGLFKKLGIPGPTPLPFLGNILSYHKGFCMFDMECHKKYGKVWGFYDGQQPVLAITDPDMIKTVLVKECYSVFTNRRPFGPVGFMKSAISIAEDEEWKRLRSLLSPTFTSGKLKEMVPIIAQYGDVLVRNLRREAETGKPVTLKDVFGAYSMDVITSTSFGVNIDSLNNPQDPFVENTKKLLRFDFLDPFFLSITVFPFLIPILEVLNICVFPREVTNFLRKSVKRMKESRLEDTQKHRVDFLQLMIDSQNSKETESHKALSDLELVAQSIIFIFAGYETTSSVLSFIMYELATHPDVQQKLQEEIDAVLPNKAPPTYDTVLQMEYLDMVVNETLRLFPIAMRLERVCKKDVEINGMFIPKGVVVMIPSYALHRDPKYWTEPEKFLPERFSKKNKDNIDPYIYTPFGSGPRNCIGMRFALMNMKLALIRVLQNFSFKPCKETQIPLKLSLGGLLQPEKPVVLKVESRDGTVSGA
# [24] = Metabolic stability in rat hepatocytes
# [25] = Metabolic stability in mouse hepatocytes
# [26] = Metabolic stability in human hepatocytes
compound,measurement,setting,value
"FC(F)(F)c1c(Cl)ccc(-n2ccnn2)c1Cl [8l, 1-(2,4-Dichloro-3-(trifluoromethyl)phenyl)-1H-1,2,3-triazole]",inhibition at 10 µM,[1],-2%
same,inhibition at 10 µM,[2],24%
same,inhibition at 10 µM,[3],-3%
same,inhibition at 10 µM,[4],-3%
same,inhibition at 10 µM,[5],1%
same,inhibition at 10 µM,[6],19%
same,inhibition at 10 µM,[7],0%
same,inhibition at 10 µM,[8],1%
same,inhibition at 10 µM,[9],-3%
same,inhibition at 10 µM,[10],11%
same,inhibition at 10 µM,[11],-5%
same,inhibition at 10 µM,[12],4%
same,inhibition at 10 µM,[13],5%
same,inhibition at 10 µM,[14],1%
same,inhibition at 10 µM,[15],7%
same,inhibition at 10 µM,[16],15%
same,inhibition at 10 µM,[17],11%
same,inhibition at 10 µM,[18],2%
same,inhibition at 10 µM,[19],15%
same,solubility,"[20]; PBS pH 7.4, read-out: aq. solubility",68 µg/mL and 240 µM
same,solubility thermodynamic,"[20]; PBS, pH 7.4, n = 2, read-out: Thermodynamic Solubility @ RT, mean",68 µg/mL
same,"fraction unbound at 5 h, 10 µM","[21]; 10% w/v in PBS, pH 7.4, mouse, 10 µM, 5 h, read-out: % Unbound in brain homogenate, mean",0.0298
same,"Brain binding, % bound",[21]; mouse brain homogenate,97.0%
same,"fraction unbound at 5 h, 10 µM","[21]; mouse, 10% w/v in PBS, pH 7.4, mouse brain homogenate, read-out: Brain binding, % bound (converted)",0.0298
same,"recovery at 5 h, 10 µM","[21]; mouse, mouse brain homogenate, 10% w/v in PBS, pH 7.4",107%
same,IC50,"[22]; read-out: CYP inhibition IC50, 1A2, HLM",0.96 µM
same,IC50,"[22]; read-out: IC50 CYP1A2/Phenacetin, (+)NADPH pre-incubation",0.963 µM
same,IC50,"[22]; read-out: IC50 CYP1A2/Phenacetin, (-)NADPH pre-incubation",0.964 µM
same,IC50,"[23]; read-out: CYP inhibition IC50, 3A4(mid.), HLM, midazolam",> 50 µM
same,IC50,"[23]; read-out: CYP inhibition IC50, 3A4(test.), HLM, testosterone",> 50 µM
same,IC50,"[23]; read-out: IC50 CYP3A4/Midazolam, (+)NADPH pre-incubation",> 50 µM
same,IC50,"[23]; read-out: IC50 CYP3A4/Midazolam, (-)NADPH pre-incubation",> 50 µM
same,IC50,"[23]; read-out: IC50 CYP3A4/Testosterone, (+)NADPH pre-incubation",> 50 µM
same,IC50,"[23]; read-out: IC50 CYP3A4/Testosterone, (-)NADPH pre-incubation",> 50 µM
same,half-life,[24],2.78 h
same,hepatocyte CLint,[24],8.3 µL/min/1e6 cells
same,mouse hepatocytes Cli,[25],19.4 μL/min/10^6 cells
same,half-life,"[25]; mouse, hepatocytes",1.23 h
same,half-life,[26],> 3.61 h
same,hepatocyte CLint,[26],< 6.4 µL/min/1e6 cells
